Entries after “also recorded” stand apart in the source; their conditions may differ. Read-outs that look alike come from different tables or passages of the source.
What was measured:
[1] = target: Recombinant hCyp18 PPIase activity (Homo sapiens, UniProt P62937); assay: Cyp18 PPIase activity, protease coupled assay; assay type: biochemical
Procedure: The PPIase activity was measured at 7 °C with a protease coupled assay on a Hewlett-Packard 8452a diode array spectrophotometer (Fischer et al., 1984). To 1220 µl Hepes buffer pH 7.8, Cyp18 and inhibitor of desired concentration are added. After 10 min of incubation, protease and substrate were added. The final substrate concentration is 40 µM in 1280 µl. The cis/trans isomerization was monitor at 390 nm with 510 nm as a reference. The rate is calculated according to first order reaction. Recombinant hCyp18 PPIase activity was measured with the peptide Suc-Ala-Phe-Pro-Phe-NH-Np as substrate. The substrate was dissolved in DMSO (10 mg/ml). α-Chymotrypsin was used as auxiliary protease. The residual enzymatic activity was plotted versus the inhibitor concentration and used for calculating the inhibitor constants Ki as described before (Schutkowski et al., 1995).
PPIase activities are measured with a protease coupled assay, using Suc-Ala-Phe-Pro-Phe-NH-Np as substrate and chymotrypsin as auxiliary protease, in 35 mM HEPES buffer pH 7.8, at 7 °C. Cyp18 concentration is 2.5 nM. […] Irradiations have been performed with light of 740 nm for 45 min. […]

[2] = target: calcineurin (CaN) phosphatase activity (Homo sapiens, UniProt P62937+P63098+Q08209); assay: Calcineurin (CaN) phosphatase activity inhibition assay in the presence of Cyp18; conditions: for change of CaN inhibition between cis and trans forms / upon light irradiation: in the presence of Cyp18, absence of SA
Procedure: The reaction mixture containing 700 µM peptide, 0.2 µM cAMP, 100 µCi[γ-^33P]ATP and 10 kU PKA in a final volume of 100 µl in the buffer (containing 20 mM MES, pH 6.5, 0.4 mM EDTA, 0.2 mM EGTA, 50 µM CaCl2 and 2 mM MgCl2) was incubated for one hour at 30 °C. The phosphorylated peptides were separated from unincorporated labeled ATP by 1 ml RP-C2 clean up extraction column (Amchro, Sulzbach, Germany). The eluted peptide (with 70% acetonitrile) was lyophilized and reconstituted with de-ionized water.
The scintillation proximity concept has been applied for measuring calcineurin activity using ScintiPlate wells coated with streptavidin. […] Biotinylated [γ-^33P] RII peptide was added to a final concentration of 100 nM and the total assay volume is 100 µl. After incubation at 30 °C for 30 min, 90 µl of the reaction mixture was transferred to the ScintiPlate well coated with streptavidin. The streptavidin immobilizes the biotinylated RII peptide on the wells. After 20 min at 22 °C the well was washed once with water and the RII associated [γ-^33P] was measured in the top-counter MicroBeta (Wallac, Turku, Finland).

[3] = test system: CaN and Cyp18; assay: Cross-linking (BS3) of CaN and Cyp18 in treated Jurkat cells, anti-CaN blot; assay type: cell-based, human
Procedure: Cells were lysed and the clear supernatants were incubated with calmodulin sepharose. Cross-linking reagent BS^3 was added to the EDTA eluates. After TCA precipitation, the samples were separated by SDS-PAGE and probed with anti-CaN antibody and detected by enhanced chemiluminescent reaction.

[4] = target: Cyp18/CsA-AB-CsA/Cyp18 tertiary complex (Homo sapiens, UniProt P62937); assay: Coprecipitation of His4-Cyp18 with GST-Cyp18 matrix on glutathione-Sepharose; assay type: binding
Chain of Cyp18/CsA-AB-CsA/Cyp18 tertiary complex (P62937 whole entry, one chain of several): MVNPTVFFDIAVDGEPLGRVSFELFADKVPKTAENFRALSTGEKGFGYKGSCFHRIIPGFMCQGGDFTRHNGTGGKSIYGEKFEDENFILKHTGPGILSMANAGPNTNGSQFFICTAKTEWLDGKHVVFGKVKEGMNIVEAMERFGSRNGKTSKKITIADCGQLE
Excerpt: The proteins were eluted by boiling with sample buffer and separated by SDS-PAGE, transferred onto nitrocellulose membrane and probed with anti-His and anti-GST antibodies.

Chain of Recombinant hCyp18 PPIase activity (P62937 whole entry): as the sequence (P62937 whole entry, one chain of several) above

## C/C=C/C[C@@H](C)[C@@H](O)[C@H]1C(=O)N[C@@H](CC)C(=O)N(C)CC(=O)N(C)[C@@H](CC(C)C)C(=O)N[C@@H](C(C)C)C(=O)N(C)[C@@H](CC(C)C)C(=O)N[C@@H](C)C(=O)N[C@H](COCC(=O)Nc2ccc(N=Nc3ccc(NC(=O)CCCC[C@@H]4SC[C@@H]5NC(=O)N[C@@H]54)cc3)cc2)C(=O)N(C)[C@@H](CC(C)C)C(=O)N(C)[C@@H](CC(C)C)C(=O)N(C)[C@@H](C(C)C)C(=O)N1C [CsA-AB-Biotin]
[1]; IC50, inhibition of Cyp18 PPIase activity, cis isomer bound to the borrowed protein SA (4 equivalents)
  IC50: 4.45 ± 0.55 nM
[1]; IC50, inhibition of Cyp18 PPIase activity, irradiated, cis, absence of SA, Cyp18 2.5 nM, 7 °C
  IC50: 2.21 ± 0.02 nM
[1]; IC50, inhibition of Cyp18 PPIase activity, non-irradiated, trans, absence of SA, Cyp18 2.5 nM, 7 °C
  IC50: 2.96 ± 0.68 nM
[1]; IC50, inhibition of Cyp18 PPIase activity, trans isomer bound to the borrowed protein SA (4 equivalents)
  IC50: 9.37 ± 0.75 nM
[2]; absence of SA
  trans/cis difference of activity in CaN inhibition assay: 1.4
[2]
  change of CaN inhibition between cis and trans forms / upon light irradiation: only a minor change
[2]; non-irradiated (trans), in the presence of SA
  IC50, CaN inhibition: too high to be determined precisely
[2]; read-out: CaN inhibition
  inhibition at 10 µM: 30%
[3]; absence of SA, conjugate in photoswitched cis form
  cross-linking between CaN and Cyp18: intensive cross-linking
[3]; cells transfected with SA, cis
  cross-linked CaN-Cyp18-SA: detected only in sample treated with cis-CsA-AB-Biotin; also recorded: can only be detected in samples treated with cis-CsA-AB-Biotin
[3]; cells transfected with SA, non-irradiated trans
  cross-linking between CaN and Cyp18: weakest cross-linking effect
[3]; cells transfected with SA, trans
  interaction of the Cyp18-trans-CsA-AB-Biotin-SA complex with CaN: does not interact with CaN

## C/C=C/C[C@@H](C)[C@@H](O)[C@H]1C(=O)N[C@@H](CC)C(=O)N(C)CC(=O)N(C)[C@@H](CC(C)C)C(=O)N[C@@H](C(C)C)C(=O)N(C)[C@@H](CC(C)C)C(=O)N[C@@H](C)C(=O)N[C@H](COCC(=O)Nc2ccc(N=Nc3ccc(NC(=O)COC[C@H]4NC(=O)[C@H](C)NC(=O)[C@H](CC(C)C)N(C)C(=O)[C@H](C(C)C)NC(=O)[C@H](CC(C)C)N(C)C(=O)CN(C)C(=O)[C@H](CC)NC(=O)[C@H]([C@H](O)[C@H](C)C/C=C/C)N(C)C(=O)[C@H](C(C)C)N(C)C(=O)[C@H](CC(C)C)N(C)C(=O)[C@H](CC(C)C)N(C)C4=O)cc3)cc2)C(=O)N(C)[C@@H](CC(C)C)C(=O)N(C)[C@@H](CC(C)C)C(=O)N(C)[C@@H](C(C)C)C(=O)N1C [CsA-AB-CsA]
[1]; irradiated cis vs non-irradiated trans
  increase of inhibitory potency towards the PPIase activity of Cyp18, cis compared to trans: 7 fold
[1]; irradiated sample kept in darkness overnight at room temperature
  Cyp18 inhibitory profile after thermal cis to trans isomerization: reversed
[1]; irradiated, cis, absence of SA, Cyp18 2.5 nM, 7 °C, read-out: IC50, inhibition of Cyp18 PPIase activity
  IC50: 30 ± 3 nM
[1]; non-irradiated, trans, absence of SA, Cyp18 2.5 nM, 7 °C, read-out: IC50, inhibition of Cyp18 PPIase activity
  IC50: 206 ± 22 nM
[2]
  change of CaN inhibition between cis and trans forms / upon light irradiation: significant increase
[4]; photoswitched cis (irradiated)
  coprecipitation of His4-Cyp18 with GST-Cyp18: coprecipitated together with GST-Cyp18
[4]; trans (non-irradiated)
  coprecipitation of His4-Cyp18 with GST-Cyp18: only a minor amount

Source: patent EP2116263A1, “Reversibly light-switchable drug-conjugates” (priority 2008, dated 2009)
